Laboratory results: patent publication US10807969B2, “Meglumine salt formulations of 1-(5,6-dichloro-1h-benzo[d]imidazol-2-yl)-1h-pyrazole-4-carboxylic acid” (Janssen Pharmaceutica NV, priority 2011, dated 2020)

Experiment: Moisture uptake (adsorption/desorption vs relative humidity)
Type: physicochemical
Settings: for Desorption (90-0% RH): moisture loss; for Adsorption (40-90% RH): moisture uptake
Source text: The thermal properties, crystalline nature, apparent purity and moisture uptake of a 6.0 g batch of the free acid of compound (1) are summarized in Table 1.
Two broad endothermic peaks of the potassium salt of compound (1) were seen by DSC that can be associated with a dehydration event and melt/decomposition, respectively (Table 2).

Desorption (90-0% RH)	Adsorption (40-90% RH)	Hygroscopicity (salt prepared by re-slurry methodology)	Structure (SMILES)
−0.96%	+0.59%	–	O=C(O)c1cnn(-c2nc3cc(Cl)c(Cl)cc3[nH]2)c1 [free acid of compound (1), 1-(5,6-Dichloro-1H-benzoimidazol-2-yl)-1H-pyrazole-4-carboxylic acid]
−0.89%	+0.53%	non-hygroscopic	O=C([O-])c1cnn(-c2nc3cc(Cl)c(Cl)cc3[nH]2)c1.[K+] [potassium salt of compound (1), potassium salt of 1-(5,6-dichloro-1H-benzoimidazol-2-yl)-1H-pyrazole-4-carboxylic acid]
